We go through six compounds from patent publication US7365099B2, “Animal body fat control” (Wisconsin Alumni Research Foundation, priority 2001, dated 2008).

One assay has as its system 3T3-L1 adipocytes. The assay is described as follows: Glycerol released from 3T3-L1 adipocytes. It counts as cell-based. The conditions noted are these: treated 20–24 hours. The protocol:
Fat reduction by CLA is partly due to inhibition of lipoprotein lipase (LPL) in adipocytes, as has been previously shown using a 3T3-L1 adipocyte cell culture model. Using the same model, the effects on LPL of aspirin and NDGA, as compared to CLA, were tested. 3T3-L1 preadipocytes were cultured as described. Frost, S. C. and M. D. Lane, J. Biol. Chem. 260: 2646–2652(1985). Briefly, 3T3-L1 preadipocytes were grown to confluence at 37° C. in Dulbecco's Modified Eagle's Medium (DMEM) with 10% fetal bovine serum (FBS). At two days post-confluence (designated “day 0”) cell differentiation was induced with a mixture of methylisobutylxanthine (0.5 mM), dexamethasone (0.25 μM), and insulin (1 μg/ml) in DMEM containing 10% FBS. On “day 2” this medium was replaced with DMEM medium containing 10% FBS and insulin only. On “day 4” and thereafter the medium was DMEM plus 10% FBS only; this medium was subsequently replaced with fresh medium at 2 day intervals.
Cells were treated with other known lipoxygenase inhibitors. Cells were treated with testing compounds for 20–24 hours at day 6 or 7 post differentiation. Based on the ED50 of these inhibitors, various doses were first tested. In FIG. 5A, the concentration of SHA, CLA, ETYA, indomethacin, NDGA and AA861 were 1×10^−3 M, 1×10^−4 M, 1×10^−4 M, 1×10^−4 M, 1×10^−5 M and 1×10^−6 M, respectively. In FIG. 5B, the cells were treated with the test compounds at 1×10^−4 M. CLA was complexed with albumin and others were dissolved in ethanol. All dishes including control contained the same concentration of albumin (1×10^−4 M) and ethanol (final concentration of 0.1%). Numbers are mean±S.E. (in FIG. 5A, n=7–8, collected from 2 independent experiments, in FIG. 5B, n=11–12, collected from 3 independent experiments). […] Indomethacin blocks both cyclooxygenase and lipoxygenase, the two primary enzymes in the arachidonic acid metabolic cascade. […] When 100 μM of these were tested, the potency was AA861>NDGA>ETYA>Indomethacin>CLA. […]

Assay [1] relates to lipoprotein lipase associated with 3T3-L1 adipocytes. The assay is described as follows: Heparin-releasable lipoprotein lipase (LPL) activity in 3T3-L1 adipocyte cultures. It counts as cell-based. The conditions noted are these: for potency in reducing LPL (rank order, in words): FIG. 5B, 20–24 hours, all test compounds at 100 μM; for LPL activity (in words): CLA 100 μM, aspirin 100 μM. The procedure: Using the same model, the effects on LPL of aspirin and NDGA, as compared to CLA, were tested. 3T3-L1 preadipocytes were cultured as described. […] Briefly, 3T3-L1 preadipocytes were grown to confluence at 37° C. in Dulbecco's Modified Eagle's Medium (DMEM) with 10% fetal bovine serum (FBS). At two days post-confluence (designated “day 0”) cell differentiation was induced with a mixture of methylisobutylxanthine (0.5 mM), dexamethasone (0.25 μM), and insulin (1 μg/ml) in DMEM containing 10% FBS. On “day 2” this medium was replaced with DMEM medium containing 10% FBS and insulin only. On “day 4” and thereafter the medium was DMEM plus 10% FBS only; this medium was subsequently replaced with fresh medium at 2 day intervals.
First, aspirin was tested along with PGE2, which is the final product of cyclooxygenase. Cells were treated with testing compounds for 4 hours before harvesting at day 6 or 7 post differentiation. The concentration of CLA, aspirin, and PGE2 were 1×10^−4 M, 1×10^−4 M, and 1×10^−6 M respectively. […] All dishes (including control) contained the same concentration of albumin (1×10^−4 M) and ethanol (final concentration of 0.1%).
Heparin-releasable lipoprotein lipase (LPL) activity (EC 3.1.1.34, 10 U heparin/ml media for 1 hr at 37° C.) was measured as described. Nilsson-Ehle, P. and M. C. […] Protein was determined using Bio-Rad DC Protein assay kit.
In a next set of cell culture experiments, shown in FIG. 4, cells were treated with testing compounds for 20–24 hours at day 7 post differentiation. […] CLA was complexed with albumin, and aspirin and NDGA were dissolved in ethanol. All dishes including control contained the same concentration of albumin (1×10^−4 M) and ethanol (final concentration of 0.05%). Numbers are mean±S.E. (n=7–8, collected from 2 independent experiments).
Cells were treated with other known lipoxygenase inhibitors. Cells were treated with testing compounds for 20–24 hours at day 6 or 7 post differentiation. Based on the ED50 of these inhibitors, various doses were first tested. In FIG. 5A, the concentration of SHA, CLA, ETYA, indomethacin, NDGA and AA861 were 1×10^−3 M, 1×10^−4 M, 1×10^−4 M, 1×10^−4 M, 1×10^−5 M and 1×10^−6 M, respectively. In FIG. 5B, the cells were treated with the test compounds at 1×10^−4 M. CLA was complexed with albumin and others were dissolved in ethanol. All dishes including control contained the same concentration of albumin (1×10^−4 M) and ethanol (final concentration of 0.1%). Numbers are mean±S.E. (in FIG. 5A, n=7–8, collected from 2 independent experiments, in FIG. 5B, n=11–12, collected from 3 independent experiments). […] Indomethacin blocks both cyclooxygenase and lipoxygenase, the two primary enzymes in the arachidonic acid metabolic cascade.

The next assay deals with fat tissue. The conditions noted are these: reported by Gowri et al. 2000; cited from earlier work.
Assay [2] can be described thus: Food intake of mice on NDGA/CLA diets (Experiment 2). It counts as in vivo. The conditions noted are these: male ICR mice, mean±S.E., N=5–6. The procedure: (§1) After a 5 day adaptation period, four-week-old weanling male ICR mice (Harlan Sprague-Dawley) were randomly separated into groups that were fed one of the treatment diets for 4 weeks. Mice were fed either a control diet (as in Experiment 1), or a diet supplemented with CLA (0.1%), NDGA (0.1% or 0.005%), or CLA (0.1%) with NDGA (0.1% or 0.005%). The lower level of NDGA was chosen based on the level used as an antioxidant in the food industry. Supplemental NDGA was added to diets at the expense of sugar. Diet was stored at −20° C. until use. Mice were housed individually in a windowless room with a 12-h light-dark cycle in strict accordance to guidelines established by the Research Animal Resources Center of University of Wisconsin-Madison. Diet and water, available ad libitum, were freshly provided three times per week.

Assay [3] is described as follows: Body weights of mice on NDGA/CLA diets (Experiment 2, FIG. 2). In kind it is in vivo. The conditions noted are these: male ICR mice. The protocol:
as §1

Assay [4] has as its system ICR mice. Put plainly: Body composition analysis of mice on NDGA/CLA diets (Experiment 2). It counts as in vivo. The conditions noted are these: male ICR mice; for % Ash / ECW (empty carcass weight): mean±S.E., N=5–6; for body composition versus control (in words): 4 weeks. The protocol:
For body composition analyses, animals were sacrificed, gut contents were removed (to obtain empty carcass weight, “ECW”), and the carcasses frozen at −20° C. Frozen carcasses were chopped, and freeze dried to determine water content. Each dried carcass was ground to give a homogeneous sample before further analysis. Total nitrogen was analyzed by the Kjeldahl method. Helrich, K., Official Methods of Analysis, 15th ed.: 935–937(1990). Carcass fat content was measured by extraction with diethyl ether overnight using a Soxhlet apparatus. Total ash content was determined by incineration (500–600° C., overnight).
as §1

A short description of assay [5]: Body weights of mice on aspirin/CLA diets (Experiment 1, FIG. 1). In kind it is in vivo. The conditions noted are these: female ICR mice, 0.5% CLA and/or 0.03% aspirin. An excerpt: After a 5 day adaptation period, four-week-old weanling female ICR mice (Harlan Sprague-Dawley) were randomly separated into groups that were fed one of the treatment diets for 4 weeks. Mice were fed either a control diet, or a diet supplemented with aspirin alone (0.03%), 0.5% CLA alone, or CLA with additional aspirin (0.006% [“Asp1”] or 0.03% [“Asp2”]). The control diet was semi-purified TD94060 diet, 99% basal mix from Harlan Teklad, Madison, Wis. that contained (ingredient, g/kg): sucrose, 476; casein, “vitamin-free” test, 210; corn starch, 150; DL-methionine, 3; corn oil 55; cellulose, 50; mineral mix, AIN-76, 35; vitamin mix, AIV-76A, 10; calcium carbonate, 4; choline bitartrate, 2; and ethoxyquin, 0.1. The aspirin doses reflect an average human dose (0.03%) or a recommended dose for preventing cardiovascular disease (0.006%). Supplemental CLA was added to diets at the expense of corn oil. Diet was stored at −20° C. until use. Mice were housed individually in a windowless room with a 12-h light-dark cycle in strict accordance to guidelines established by the Research Animal Resources Center of University of Wisconsin-Madison. Diet and water, available ad libitum, were freshly provided three times per week.

Assay [6] relates to ICR mice. Put plainly: Body composition analysis of mice on aspirin/CLA diets (Experiment 1). The conditions noted are these: female ICR mice, 4 weeks. It counts as in vivo. An excerpt: After a 5 day adaptation period, four-week-old weanling female ICR mice (Harlan Sprague-Dawley) were randomly separated into groups that were fed one of the treatment diets for 4 weeks. Mice were fed either a control diet, or a diet supplemented with aspirin alone (0.03%), 0.5% CLA alone, or CLA with additional aspirin (0.006% [“Asp1”] or 0.03% [“Asp2”]). The control diet was semi-purified TD94060 diet, 99% basal mix from Harlan Teklad, Madison, Wis. that contained (ingredient, g/kg): sucrose, 476; casein, “vitamin-free” test, 210; corn starch, 150; DL-methionine, 3; corn oil 55; cellulose, 50; mineral mix, AIN-76, 35; vitamin mix, AIV-76A, 10; calcium carbonate, 4; choline bitartrate, 2; and ethoxyquin, 0.1. The aspirin doses reflect an average human dose (0.03%) or a recommended dose for preventing cardiovascular disease (0.006%). Supplemental CLA was added to diets at the expense of corn oil. Diet was stored at −20° C. until use. […]
For body composition analyses, animals were sacrificed, gut contents were removed (to obtain empty carcass weight, “ECW”), and the carcasses frozen at −20° C. […] Total nitrogen was analyzed by the Kjeldahl method. […] Carcass fat content was measured by extraction with diethyl ether overnight using a Soxhlet apparatus. Total ash content was determined by incineration (500–600° C., overnight).

[7] abbreviates: FIG. 4, treated 20–24 hours at day 7 post differentiation, NDGA 50 μM.
Where [8] appears, read: 4 weeks diet with 0.005% NDGA, with or without 0.1% CLA.
Setting [9] is: 4 weeks diet with 0.1% CLA and/or 0.1% NDGA.
[10] abbreviates: diet with 0.005% NDGA, with or without 0.1% CLA.
The mark [11] stands for this setting: diet with 0.1% CLA and/or 0.1% NDGA.
[12] abbreviates: 0.005% NDGA, with or without 0.1% CLA.
[13] abbreviates: FIG. 3, treated 4 hours, day 6 or 7 post differentiation, PGE2 1 μM.

SMILES strings stand for the structures.

As for `CC1=C(C)C(=O)C(CCCCC#CCCCC#CCO)=C(C)C1=O` [AA861, 2-[12-hydroxydodeca-5,10-diynyl]-3,5,6-trimethyl-p-benzoquinone], in the assay on 3T3-L1 adipocytes, the “glycerol released from the cell (in words)” value is “reduced the glycerol release”. In assay [1], the “potency in reducing LPL (rank order, in words)” value (“potency in reducing LPL” below) is given as “AA861>NDGA>ETYA>Indomethacin>CLA”.
Take `CC(Cc1ccc(O)c(O)c1)C(C)Cc1ccc(O)c(O)c1` (stereo not shown) [NDGA, nordihydroguaiaretic acid]: the “lipolysis in fat tissue (in words)” value in the assay with fat tissue is given as “reduce lipolysis”. Moreover, the “glycerol released from the cell (in words)” value in the assay with 3T3-L1 adipocytes is “reduced the glycerol release”. Moreover, the “LPL activity (in words)” value in assay [1] (setting [7]) is given as “significantly reduced LPL activity”. For the same compound, the “potency in reducing LPL” value in assay [1] is “AA861>NDGA>ETYA>Indomethacin>CLA”. The “food intake, Total” value in assay [2] (setting [8]) turned out to be 136.3 ± 1.3 g/mouse; in assay [2] (setting [9]), 137.9 ± 1.9 g/mouse. Besides, the “food intake, Week 1” value in assay [2] (setting [10]) amounted to 33.8 ± 0.6 g/mouse; in assay [2] (setting [11]) it was 35.2 ± 0.7 g/mouse. Further, the “food intake, Week 4” value was determined as 34.0 ± 0.4 g/mouse in assay [2] (setting [10]) and 33.8 ± 1.0 g/mouse in assay [2] (setting [11]). The “body weights (in words)” value in assay [3] (setting [12]) and in assay [3] (0.1% CLA and/or 0.1% NDGA) was “no difference in body weights” in each case. For the same compound, the results for the “% Ash” value in the assay with ICR mice [4] (setting [8]) and with ICR mice [4] (setting [9]) were 3.29 ± 0.12% and 3.43 ± 0.09%, respectively. The “ECW (empty carcass weight)” value in the assay on ICR mice [4] (setting [8]) worked out at 32.2 ± 0.6 g; with ICR mice [4] (setting [9]), 31.9 ± 1.3 g. Besides, the “body composition versus control (in words)” value with ICR mice [4] (setting [12]) is “no effect on body composition”; in the assay with ICR mice [4] (0.1% CLA and/or 0.1% NDGA), “reduced fat (p<0.209) and increased water and protein”.
`CC(=O)Oc1ccccc1C(=O)O` [aspirin, Acetylsalicylic acid]: in assay [5], the “body weights, weeks 0 through 3 (in words)” value was “no difference in body weights”. The “LPL activity (in words)” value is reported as “no effect on LPL” in assay [1] (setting [13]) and “no effect” in assay [1] (setting [7]). The “effect of added aspirin on CLA's effects on body composition (in words)” value with ICR mice [6] (0.006% or 0.03% aspirin with 0.5% CLA) is reported as “did not change any of CLA's effects”. Further, the “body composition versus control (in words)” value in the assay on ICR mice [6] (0.5% CLA with or without aspirin, aspirin alone 0.03%) is “no effect on body composition”.
For the compound `CCCCCC#CCC#CCC#CCC#CCCCC(=O)O` [ETYA, 5,8,11,14-eicosatetraynoic acid], in assay [1], the “potency in reducing LPL” value was “AA861>NDGA>ETYA>Indomethacin>CLA”.
The same measure, in the same setting: under `COc1ccc2c(c1)c(CC(=O)O)c(C)n2C(=O)c1ccc(Cl)cc1` [Indomethacin, indomethacin] stands “AA861>NDGA>ETYA>Indomethacin>CLA”.
Turning to `CCCCC[C@H](O)/C=C/[C@H]1[C@H](O)CC(=O)[C@@H]1C/C=C\CCCC(=O)O` [PGE2, Prostaglandin E2], the “LPL activity (in words)” value in assay [1] (setting [13]) is on record as “no effect on LPL”.
